{
  "source": "patent US20260315475A1",
  "about": "(priority 2023, published 2026)",
  "key": {"ROCK2": {"system": "ROCK2", "settings": "cited from earlier work"}, "UGT1A9": {"system": "UGT1A9", "settings": "role: inhibitor; in vitro; cited from earlier work"}, "[1]": {"system": "human peripheral blood lymphocytes (HPBL)", "settings": "in vitro; cited from earlier work"}, "CYP1A2": {"system": "CYP1A2", "settings": "role: inhibitor; in vitro; cited from earlier work"}, "[2]": {"assay": "Safety and tolerability in the Phase I hepatic impairment study", "assay_type": "in vivo, human", "text": "The secondary objectives were: to evaluate the safety and tolerability of a single oral dose of belumosudil in participants with mild, moderate, or severe hepatic impairment, and in healthy participants with normal hepatic function; to assess the PK of the belumosudil metabolites following a single oral dose of belumosudil in participants with mild, moderate, or severe hepatic impairment compared to healthy participants with normal hepatic function. […]\nThe secondary/safety endpoints were: incidence and severity of adverse events (AEs), clinical laboratory parameters (hematology, clinical chemistry, coagulation, and urinalysis), 12-lead electrocardiogram (ECG) parameters, vital signs parameters, and physical examinations.\nTreatment-emergent AEs (TEAEs) were summarized by severity and relationship to the investigational medicinal product (IMP). The frequency of TEAEs was summarized by Medical Dictionary for Regulatory Activities system organ class and preferred term, and hepatic function. Summary and frequency TEAE tables were presented for all causalities and for those considered related to the IMP.\nSerum biochemistry, hematology, and coagulation data were summarized by hepatic function. In addition, all serum biochemistry, hematology, and urinalysis data outside the clinical reference ranges were listed by parameter and treatment. Vital signs and ECG data were summarized by hepatic function, together with changes from baseline."}, "[3]": {"settings": "200 and 400 mg; cited from earlier work"}, "CYP2C8": {"system": "CYP2C8", "settings": "role: substrate; in vitro; cited from earlier work"}, "bacteria": {"system": "bacteria", "settings": "in vitro; cited from earlier work"}, "[4]": {"settings": "single dose, high-fat high-calorie meal vs fasted, healthy subjects; cited from earlier work"}, "[5]": {"settings": "pregnant rats, cited from earlier work"}, "rat bone marrow": {"system": "rat bone marrow", "settings": "in vivo; cited from earlier work"}, "[6]": {"assay": "Embryo-fetal developmental study in rabbits", "assay_type": "in vivo", "settings": "rabbit"}, "CYP2D6": {"system": "CYP2D6", "settings": "role: substrate; in vitro; cited from earlier work"}, "P-gp": {"system": "P-gp", "settings": "role: inhibitor; clinically relevant concentrations, in vitro; cited from earlier work"}, "[7]": {"assay": "Embryo-fetal development studies in rats", "assay_type": "in vivo", "settings": "rat", "procedure": "In the pilot study, maternal toxicity and embryo-fetal developmental effects were observed. Maternal toxicity (reduced body weight gain) occurred at 150 and 300 mg/kg/day doses. Increased post-implantation loss occurred at 50 and 300 mg/kg/day."}, "[8]": {"settings": "age 18 to 77 years, weight 38.6 to 143 kg, mild to moderate renal impairment; cited from earlier work"}, "[9]": {"settings": "moderate hepatic impairment group"}},
  "data": [
    {"smiles": "CC(C)NC(=O)COc1cccc(-c2nc(Nc3ccc4[nH]ncc4c3)c3ccccc3n2)c1", "note": "[belumosudil, 2-{3-[4-(1H-indazol-5-ylamino)-2-quinazolinyl]phenoxy}-N-(propan-2-yl) acetamide]", "values": [
      {"measurement": "IC50", "setting": "ROCK2", "value": "[…]"},
      {"measurement": "UGT1A9 inhibition", "setting": "UGT1A9", "value": "inhibitor"},
      {"measurement": "genotoxicity, chromosome aberration", "setting": "[1]", "value": "[…]"},
      {"measurement": "CYP1A2 inhibition", "setting": "CYP1A2", "value": "inhibitor"},
      {"measurement": "12-lead ECG parameters", "setting": "[2]; individual participants", "value": "no clinically significant changes"},
      {"measurement": "vital signs parameters", "setting": "[2]; individual participants", "value": "no clinically significant changes"},
      {"measurement": "number of SAEs", "setting": "[2]; [9]", "value": 1},
      {"measurement": "number of TEAEs", "setting": "[2]; [9]", "value": 2, "unit": "TEAEs"},
      {"measurement": "participants reporting TEAEs", "setting": "[2]; moderate hepatic impairment group, 1 participant", "value": 12.5, "unit": "%"},
      {"measurement": "AEs related to study drug", "setting": "[2]; single oral 200 mg", "value": "no reports of AEs related to study drug"},
      {"measurement": "deaths", "setting": "[2]; single oral 200 mg", "value": "no reports of deaths"},
      {"measurement": "discontinuation due to an AE", "setting": "[2]; single oral 200 mg", "value": "no participants discontinued due to an AE"},
      {"measurement": "clinical chemistry, hematology, coagulation, or urinalysis", "setting": "[2]; throughout the study", "value": "no clinically significant changes"},
      {"measurement": "physical examinations", "setting": "[2]; throughout the study", "value": "no clinically significant findings"},
      {"measurement": "dose proportionality of Cmax and AUC", "setting": "[3]", "value": "increased in an approximately proportional manner"},
      {"measurement": "metabolism by CYP2C8", "setting": "CYP2C8", "value": "to a lesser extent"},
      {"measurement": "genotoxicity, bacterial mutagenicity (Ames)", "setting": "bacteria", "value": "not genotoxic"},
      {"measurement": "increase in AUC with food", "setting": "[4]", "value": 2, "unit": "times"},
      {"measurement": "increase in Cmax with food", "setting": "[4]", "value": 2.2, "unit": "times"},
      {"measurement": "doses with fetal malformations", "setting": "[5]; oral, pilot study, absence of anus and tail, omphalocele, dome shaped head", "value": "≥ 50", "unit": "mg/kg/day"},
      {"measurement": "maternal exposure (AUC) causing embryo-fetal mortality and malformations vs patients", "setting": "[5]; organogenesis", "value": "less than those in patients at the recommended dose"},
      {"measurement": "genotoxicity, micronucleus", "setting": "rat bone marrow", "value": "not genotoxic"},
      {"measurement": "maternal exposure (AUC) multiple of human exposure with adverse developmental outcomes", "setting": "[6]", "value": "≥ 0.07", "unit": "times the human exposure"},
      {"measurement": "metabolism by CYP2D6", "setting": "CYP2D6", "value": "to a lesser extent"},
      {"measurement": "P-gp inhibition", "setting": "P-gp", "value": "inhibits"},
      {"measurement": "maternal exposure (AUC) multiple of human exposure with adverse developmental outcomes", "setting": "[7]", "value": "≥ 3", "unit": "times the human exposure"},
      {"measurement": "differences in belumosudil pharmacokinetics by age, sex, weight, renal impairment", "setting": "[8]", "value": "No clinically significant differences"}
    ]}
  ]
}
